Each structure is given as a SMILES string.

One experiment relates to Phytophthora infestans.
Assay: not given
The class given is in vivo. Particulars: young tomato plants, sprayed, active ingredient concentration 100 ppm, inoculated 1 day after treatment, evaluation 7 days after inoculation; 100% = no infection.
`CCON=C(C)c1cccc(C2CC(c3csc(C4CCN(C(=O)Cn5nc(C(F)F)cc5C(F)F)CC4)n3)=NO2)c1` (mixture of isomers) [Example I-5] showed an Eff. % of 100%.

`CC(C)ON=Cc1cccc(C2CC(c3csc(C4CCN(C(=O)Cn5nc(C(F)F)cc5C(F)F)CC4)n3)=NO2)c1` (mixture of isomers) [Example I-6] had an Eff. % of 100%.

Compound `Cc1cc(C(F)(F)F)nn1CC(=O)N1CCC(c2nc(C3=NOC(c4cccc(C=NOC(C)C)c4)C3)cs2)CC1` (mixture of isomers) [Example I-8] gave an Eff. % of 100%.

With `CC(=NOC(C)C)c1cccc(C2CC(c3csc(C4CCN(C(=O)Cn5nc(C(F)(F)F)cc5C)CC4)n3)=NO2)c1` (mixture of isomers) [Example I-9], the Eff. % is on record as 100%.

As to `Cc1cc(C(F)(F)F)nn1CC(=O)N1CCC(c2nc(C3=NOC(c4cccc(C=NO)c4)C3)cs2)CC1` (mixture of isomers) [Example I-10], the Eff. % is recorded as 100%.

With `CCON=Cc1cccc(C2CC(c3csc(C4CCN(C(=O)Nc5cc(Cl)ccc5C)CC4)n3)=NO2)c1` (mixture of isomers) [Example I-12], the Eff. % is given as 95%.

The compound `Cc1ccc(Cl)cc1NC(=O)N1CCC(c2nc(C3=NOC(c4cccc(C=NO)c4)C3)cs2)CC1` (mixture of isomers) [Example I-14] registered an Eff. % of 100%.

On to `CON=Cc1cccc(C2CC(c3csc(C4CCN(C(=O)Cn5nc(C(F)(F)F)cc5C)CC4)n3)=NO2)c1` (mixture of isomers) [Example I-15], for which the Eff. % is reported as 100%.

`CC(=NOC(C)C)c1cccc(C2CC(c3csc(C4CCN(C(=O)Cn5nc(C(F)F)cc5C(F)F)CC4)n3)=NO2)c1` (mixture of isomers) [Example I-20]: the Eff. % is reported as 100%.

`CCON=Cc1cccc(C2CC(c3csc(C4CCN(C(=O)Cn5nc(C(F)F)cc5C(F)F)CC4)n3)=NO2)c1` (mixture of isomers) [Example I-24] registered an Eff. % of 100%.

Regarding `CC(=NOC(C)C)c1ccccc1C1CC(c2csc(C3CCN(C(=O)Cn4nc(C(F)F)cc4C(F)F)CC3)n2)=NO1` (mixture of isomers) [Example I-28], the Eff. % was determined as 100%.

Compound `CC(=NOC(C)C)c1ccccc1C1CC(c2csc(C3CCN(C(=O)Cn4nc(C(F)(F)F)cc4C)CC3)n2)=NO1` (mixture of isomers) [Example I-30] had an Eff. % of 100%.

As for `CCON=Cc1ccccc1C1CC(c2csc(C3CCN(C(=O)Nc4cc(Cl)ccc4C)CC3)n2)=NO1` (mixture of isomers) [Example I-33], the Eff. % came to 100%.

`Cc1ccc(Cl)cc1NC(=O)N1CCC(c2nc(C3=NOC(c4ccccc4C=NOC(C)C)C3)cs2)CC1` (mixture of isomers) [Example I-37] showed an Eff. % of 100%.

With `Cc1cc(C(F)(F)F)nn1CC(=O)N1CCC(c2nc(C3=NOC(c4ccccc4C=NOC(C)C)C3)cs2)CC1` (mixture of isomers) [Example I-39], the Eff. % is reported as 100%.

On to `CC(C)ON=Cc1ccccc1C1CC(c2csc(C3CCN(C(=O)Cn4nc(C(F)F)cc4C(F)F)CC3)n2)=NO1` (mixture of isomers) [Example I-42], for which the Eff. % was found to be 100%.

In turn, `CCON=Cc1cccc(C2CC(c3csc(C4CCN(C(=O)Cn5nc(C(F)(F)F)cc5C)CC4)n3)=NO2)c1` (stereo not drawn) [Example I-11] yielded an Eff. % of 100%.

On to `Cc1ccc(Cl)cc1NC(=O)N1CCC(c2nc(C3=NOC(c4cccc(C=NOC(C)C)c4)C3)cs2)CC1` (stereo not drawn) [Example I-13], for which the Eff. % is given as 100%.

The compound `CC1(c2ccccc2OS(C)(=O)=O)CC(c2csc(C3CCN(C(=O)Cn4nc(C(F)F)cc4C(F)F)CC3)n2)=NO1` (stereo not drawn) [Example I-43] had an Eff. % of 94%.

Turning to `Cc1cc(C(F)F)nn1CC(=O)N1CCC(c2nc(C3=NOC(C)(c4ccccc4OS(C)(=O)=O)C3)cs2)CC1` (stereo not drawn) [Example I-44], the Eff. % is 94%.

In turn, `COCCS(=O)(=O)Cc1ccccc1C1CC(c2csc(C3CCN(C(=O)Cn4nc(C(F)(F)F)cc4C)CC3)n2)=NO1` (stereo not drawn) [Example I-45] had an Eff. % of 94%.

`Cc1ccc(S(=O)(=O)Oc2ccccc2C2(C)CC(c3csc(C4CCN(C(=O)Cn5nc(C(F)F)cc5C(F)F)CC4)n3)=NO2)cc1` (stereo not drawn) [Example I-48] registered an Eff. % of 94%.

As to `Cc1ccc(S(=O)(=O)Oc2ccccc2C2(C)CC(c3csc(C4CCN(C(=O)Cn5nc(C(F)F)cc5C)CC4)n3)=NO2)cc1` (stereo not drawn) [Example I-49], the Eff. % worked out at 94%.

Compound `CS(=O)(=O)Oc1ccc(F)c(C2CC(c3csc(C4CCN(C(=O)Cn5nc(C(F)F)cc5C(F)F)CC4)n3)=NO2)c1F` (stereo not drawn) [Example I-50] yielded an Eff. % of 94%.

In turn, `Cc1cc(C(F)F)nn1CC(=O)N1CCC(c2nc(C3=NOC(c4ccccc4OS(C)(=O)=O)C3)cs2)CC1` (stereo not drawn) [Example I-51] returned an Eff. % of 97%.

With `Cc1ccc(C)c(NC(=O)N2CCC(c3nc(C4=NOC(c5c(Cl)cccc5OS(C)(=O)=O)C4)cs3)CC2)c1` (stereo not drawn) [Example I-52], the Eff. % is reported as 94%.

As for `COCC[S+]([O-])Cc1ccccc1C1CC(c2csc(C3CCN(C(=O)Cn4nc(C(F)F)cc4C(F)F)CC3)n2)=NO1` (stereo not drawn) [Example I-56], the Eff. % was found to be 94%.

Regarding `CS(=O)(=O)Oc1cc(Cl)ccc1C1CC(c2csc(C3CCN(C(=O)Cn4nc(C(F)F)cc4C(F)F)CC3)n2)=NO1` (stereo not drawn) [Example I-70], the Eff. % was 97%.

The compound `N#CCOc1cc(Cl)ccc1C1CC(c2csc(C3CCN(C(=O)Cn4nc(C(F)F)cc4C(F)F)CC3)n2)=NO1` (stereo not drawn) [Example I-71] registered an Eff. % of 100%.

Take `C=CCOCc1ccccc1C1CC(c2csc(C3CCN(C(=O)Cn4nc(C(F)(F)F)cc4C)CC3)n2)=NO1` (stereo not drawn) [Example I-93]: the Eff. % worked out at 95%.

On to `C=CCOCc1ccccc1C1CC(c2csc(C3CCN(C(=O)Cn4nc(C(F)F)cc4C(F)F)CC3)n2)=NO1` (stereo not drawn) [Example I-94], for which the Eff. % worked out at 100%.

With `Cc1cc(C(F)(F)F)nn1CC(=O)N1CCC(c2nc(C3=NOC(c4cccc(OCC#N)c4)C3)cs2)CC1` (stereo not drawn) [Example I-95], the Eff. % came out at 100%.

With `Cc1cc(C(F)(F)F)nn1CC(=O)N1CCC(c2nc(C3=NOC(c4ccc(OS(C)(=O)=O)cc4)C3)cs2)CC1` (stereo not drawn) [Example I-96], the Eff. % turned out to be 95%.

Compound `CCS(=O)(=O)Oc1ccc(C2CC(c3csc(C4CCN(C(=O)Cn5nc(C(F)(F)F)cc5C)CC4)n3)=NO2)cc1` (stereo not drawn) [Example I-97] yielded an Eff. % of 95%.

Turning to `Cc1cc(C(F)(F)F)nn1CC(=O)N1CCC(c2nc(C3=NOC(c4ccc(OS(=O)(=O)C5CC5)cc4)C3)cs2)CC1` (stereo not drawn) [Example I-98], the Eff. % turned out to be 95%.

As to `CCS(=O)(=O)Oc1cccc(C2CC(c3csc(C4CCN(C(=O)Cn5nc(C(F)(F)F)cc5C)CC4)n3)=NO2)c1` (stereo not drawn) [Example I-99], the Eff. % turned out to be 100%.

In turn, `COCCSCc1ccccc1C1CC(c2csc(C3CCN(C(=O)Cn4nc(C(F)F)cc4C(F)F)CC3)n2)=NO1` (stereo not drawn) [Example I-100] had an Eff. % of 100%.

The compound `Cc1cc(C(F)(F)F)nn1CC(=O)N1CCC(c2nc(C3=NOC(c4cccc(OS(=O)(=O)C5CC5)c4)C3)cs2)CC1` (stereo not drawn) [Example I-101] registered an Eff. % of 100%.

`C=CC(=O)Oc1ccccc1C1CC(c2csc(C3CCN(C(=O)Cn4nc(C(F)(F)F)cc4C)CC3)n2)=NO1` (stereo not drawn) [Example I-104]: the Eff. % was 97%.

`O=C(Cn1nc(C(F)F)cc1C(F)F)N1CCC(c2nc(C3=NOC(c4ccccc4OC(=O)C4(Cl)CC4)C3)cs2)CC1` (stereo not drawn) [Example I-107] had an Eff. % of 100%.

`Cc1cc(C(F)(F)F)nn1CC(=O)N1CCC(c2nc(C3=NOC(c4ccccc4NC=O)C3)cs2)CC1` (stereo not drawn) [Example I-109] had an Eff. % of 100%.

The compound `N#CCOc1cccc(C2CC(c3csc(C4CCN(C(=O)Cn5nc(C(F)F)cc5C(F)F)CC4)n3)=NO2)c1` (stereo not drawn) [Example I-110] had an Eff. % of 100%.

Take `Cc1cc(C(F)(F)F)nn1CC(=O)N1CCC(c2nc(C3=NOC(c4cccc(F)c4OCC#N)C3)cs2)CC1` (stereo not drawn) [Example I-111]: the Eff. % is given as 98%.

`O=C(O)c1ccccc1C1CC(c2csc(C3CCN(C(=O)Cn4nc(C(F)F)cc4C(F)F)CC3)n2)=NO1` (stereo not drawn) [Example I-134] returned an Eff. % of 93%.

`CCNC(=O)Oc1ccccc1C1CC(c2csc(C3CCN(C(=O)Cn4nc(C(F)F)cc4C(F)F)CC3)n2)=NO1` (stereo not drawn) [Example I-136] displayed an Eff. % of 93%.

On to `O=C(Cn1nc(C(F)F)cc1C(F)F)N1CCC(c2nc(C3=NOC(c4cccc(OCC#Cc5cccc6ccccc56)c4)C3)cs2)CC1` (stereo not drawn) [Example I-137], for which the Eff. % was determined as 100%.

In the case of `C=CCOCc1ccccc1C1CC(c2csc(C3CCN(C(=O)Cn4nc(C(F)F)cc4C(F)F)CC3)n2)=NO1` (stereo not drawn) [Example I-139], the Eff. % is listed as 80%.

A further experiment relates to Plasmopara viticola. As to the kind of experiment: Plasmopara test (grapevine)/protective. The class given is in vivo. The conditions noted are these: young grapevine plants, sprayed, active ingredient concentration 10 ppm, evaluation 6 days after inoculation; 100% = no infection. Here is the method:
Plasmopara Test (Grapevine)/Protective
• Solvent: 24.5 parts by weight of acetone • 24.5 parts by weight of dimethylacetamide • Emulsifier: 1 part by weight of alkylaryl polyglycol ether
[To produce an appropriate active ingredient formulation, 1 part by weight of active ingredient is mixed with the specified amounts of solvent and emulsifier, and the concentrate is diluted with water to the desired concentration.
To test for protective efficacy, young plants are sprayed with the active ingredient formulation at the stated application rate. After the spray coating has dried on, the plants are inoculated with an aqueous spore suspension of Plasmopara viticola and then remain in an incubation cabin at approx. 20° C. and 100% relative air humidity for 1 day. Subsequently, the plants are placed in a greenhouse at approx. 21° C. and approx. 90% air humidity for 4 days. The plants are then moistened and placed in an incubation cabin for 1 day.
Evaluation follows 6 days after the inoculation. 0% means an efficacy which corresponds to that of the control, whereas an efficacy of 100% means that no infection is observed.
In this test, the following inventive compounds show, at an active ingredient concentration of 10 ppm, an efficacy of 70% or more: […]
Take `CCON=C(C)c1cccc(C2CC(c3csc(C4CCN(C(=O)Cn5nc(C(F)F)cc5C(F)F)CC4)n3)=NO2)c1` (mixture of isomers) [Example I-5]: the Eff. % was found to be 87%.

For the compound `Cc1cc(C(F)(F)F)nn1CC(=O)N1CCC(c2nc(C3=NOC(c4cccc(C=NO)c4)C3)cs2)CC1` (mixture of isomers) [Example I-10], the Eff. % was 92%.

In turn, `Cc1ccc(Cl)cc1NC(=O)N1CCC(c2nc(C3=NOC(c4cccc(C=NO)c4)C3)cs2)CC1` (mixture of isomers) [Example I-14] gave an Eff. % of 100%.

For the compound `CON=Cc1cccc(C2CC(c3csc(C4CCN(C(=O)Cn5nc(C(F)(F)F)cc5C)CC4)n3)=NO2)c1` (mixture of isomers) [Example I-15], the Eff. % is reported as 81%.

Compound `CON=Cc1cccc(C2CC(c3csc(C4CCN(C(=O)Cn5nc(C(F)F)cc5C(F)F)CC4)n3)=NO2)c1` (mixture of isomers) [Example I-16] yielded an Eff. % of 94%.

Turning to `CC(=O)Nc1ccc(C2CC(c3csc(C4CCN(C(=O)Cn5nc(C(F)F)cc5C(F)F)CC4)n3)=NO2)cc1` (stereo not drawn) [Example I-25], the Eff. % is 97%.

On to `N#CCOc1cccc(Cl)c1C1CC(c2csc(C3CCN(C(=O)Cn4nc(C(F)F)cc4C(F)F)CC3)n2)=NO1` (stereo not drawn) [Example I-75], for which the Eff. % was 100%.
